Experimental data as given in US10052310B2, “Separase inhibitors and uses thereof” (Baylor College of Medicine, priority 2013, dated 2018).

Target: T1, Separase (Homo sapiens, UniProt Q14674)
T1 construct: made in house; host or cells: 293T cells; released from IgG-Agarose by TEV protease
Experiment: Fluorogenic Separase activity assay using (Rad21)2-Rh110 as substrate
Format: biochemical
Details: DMSO final concentration 2% to 38%
Procedure: The substrate used in this Example is (Rad21)2-Rh110, which has two Rad21 peptide molecules (Asp-Arg-Glu-Ile-Nle-Arg) conjugated to one molecule of Rhodamine 110 (Rh110) (CPC Scientific, Sunnyvale Calif.). The assay was set up using 384-well low volume black polystyrene plates (Corning, N.Y.). Fifteen micro liter of activated Separase (˜5 ng) was mixed with 5 μl of test compound. The cleavage buffer (CB) used to dilute reagents was (30 mM Hepes-KOH pH7.7, 50 mM NaCl, 25 mM NaF, 25 mM KCl, 5 mM MgCl2, 1.5 mM ATP, and 1 mM EGTA). The mixture was incubated at room temperature for 1 h, and then 5 μl of 0.2 mM substrate (Rad21)2-Rh110 was added. The positive control contained Separase, substrate and CB without the test compound. The negative control contained substrate and CB only. After the reaction mixture was incubated at 37° C. for 3 h, the relative fluorescence intensity was measured (without stopping the enzymatic activity) at λex=390 nm/λem=450 nm for […] (AMC) released from Rad21-MCA or λex=490 nm/λem=528 nm for Rh110 released from (Rad21)2-Rh110 using a Synergy™ 4 Multi-Mode Microplate Reader (BioTek Instruments Inc., Winooski, Vt.).
Different amounts of Sepin-1 were mixed with activated Separase for 30 min before substrate (Rad21)2-Rh110 was added. After 3 h incubation at 37° C., the fluorescence intensity of Rh110 was determined. IC50 was calculated using either KaleidaGraph program (Synerge software, Reading, Pa.) or four parameter logistic equation (4-parameter dose-response curve fit): Inhibition of Activity (%)=min+(max−min)/{1+(log [M]/IC50)}^Hill Slop, where “min” and “max” represent minimal and maximal activity inhibition, respectively. Hill Slop is the slope of the curve at its midpoint. To identify the mode of Sepin-1 interacting with Separase, different amounts of both Sepin-1 and (Rad21)2-Rh110 were used in the Separase activity assay.

T1 sequence (Q14674 whole entry): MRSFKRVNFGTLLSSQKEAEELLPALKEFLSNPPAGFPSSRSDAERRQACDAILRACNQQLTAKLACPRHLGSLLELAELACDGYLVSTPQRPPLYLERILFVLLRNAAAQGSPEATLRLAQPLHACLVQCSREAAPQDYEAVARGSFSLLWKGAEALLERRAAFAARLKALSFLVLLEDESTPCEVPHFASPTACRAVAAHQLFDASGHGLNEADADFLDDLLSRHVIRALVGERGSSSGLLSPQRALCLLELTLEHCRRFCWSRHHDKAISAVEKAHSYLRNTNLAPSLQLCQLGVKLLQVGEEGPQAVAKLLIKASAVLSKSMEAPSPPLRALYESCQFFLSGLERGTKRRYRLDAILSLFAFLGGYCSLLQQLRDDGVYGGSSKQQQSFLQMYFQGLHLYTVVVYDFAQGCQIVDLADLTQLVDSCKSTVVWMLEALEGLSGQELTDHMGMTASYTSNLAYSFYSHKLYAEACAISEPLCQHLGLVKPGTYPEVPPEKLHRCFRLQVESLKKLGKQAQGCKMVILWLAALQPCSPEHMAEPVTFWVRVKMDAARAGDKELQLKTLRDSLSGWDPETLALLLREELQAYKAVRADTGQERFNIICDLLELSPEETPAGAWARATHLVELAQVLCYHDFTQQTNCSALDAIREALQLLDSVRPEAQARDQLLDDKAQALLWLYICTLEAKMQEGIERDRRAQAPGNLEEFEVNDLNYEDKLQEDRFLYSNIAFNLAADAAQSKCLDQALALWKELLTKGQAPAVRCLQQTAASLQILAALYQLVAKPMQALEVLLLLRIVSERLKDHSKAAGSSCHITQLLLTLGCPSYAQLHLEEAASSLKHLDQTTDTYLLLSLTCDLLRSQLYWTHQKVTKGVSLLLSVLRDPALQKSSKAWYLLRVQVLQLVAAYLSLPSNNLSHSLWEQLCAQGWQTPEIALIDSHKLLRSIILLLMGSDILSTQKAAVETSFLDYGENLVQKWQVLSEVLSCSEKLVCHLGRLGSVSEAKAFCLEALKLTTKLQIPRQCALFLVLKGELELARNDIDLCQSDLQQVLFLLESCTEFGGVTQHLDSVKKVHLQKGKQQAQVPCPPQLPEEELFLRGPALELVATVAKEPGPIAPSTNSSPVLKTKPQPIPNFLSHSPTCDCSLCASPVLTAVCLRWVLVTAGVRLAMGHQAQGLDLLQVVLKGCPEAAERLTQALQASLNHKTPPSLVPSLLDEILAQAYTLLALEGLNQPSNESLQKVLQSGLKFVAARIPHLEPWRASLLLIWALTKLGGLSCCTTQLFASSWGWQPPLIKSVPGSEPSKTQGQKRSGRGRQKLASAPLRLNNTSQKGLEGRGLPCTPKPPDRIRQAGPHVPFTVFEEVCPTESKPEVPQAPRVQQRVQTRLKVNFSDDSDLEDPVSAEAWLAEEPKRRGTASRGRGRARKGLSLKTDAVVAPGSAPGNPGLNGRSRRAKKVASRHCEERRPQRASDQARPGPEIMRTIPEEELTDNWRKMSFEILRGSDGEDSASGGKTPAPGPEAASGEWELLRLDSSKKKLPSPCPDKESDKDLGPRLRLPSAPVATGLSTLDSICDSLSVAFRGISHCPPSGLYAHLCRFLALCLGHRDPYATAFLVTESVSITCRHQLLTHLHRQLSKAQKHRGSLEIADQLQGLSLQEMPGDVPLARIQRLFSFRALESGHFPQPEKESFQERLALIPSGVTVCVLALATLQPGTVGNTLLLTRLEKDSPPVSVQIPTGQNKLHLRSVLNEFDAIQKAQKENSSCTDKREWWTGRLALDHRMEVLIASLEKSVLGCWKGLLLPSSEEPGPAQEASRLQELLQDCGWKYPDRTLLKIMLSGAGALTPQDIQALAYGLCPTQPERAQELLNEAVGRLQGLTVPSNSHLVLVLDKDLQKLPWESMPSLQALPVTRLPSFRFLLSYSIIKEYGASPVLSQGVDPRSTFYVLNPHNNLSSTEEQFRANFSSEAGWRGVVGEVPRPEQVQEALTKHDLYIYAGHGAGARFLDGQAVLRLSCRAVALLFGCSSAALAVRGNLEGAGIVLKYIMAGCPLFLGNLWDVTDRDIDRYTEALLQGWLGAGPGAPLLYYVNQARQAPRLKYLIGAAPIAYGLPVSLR

- IC50 of DMSO on Separase assay: ~27%
Structure (SMILES): C[S+](C)[O-] [DMSO]
